Values of other authors, collected in patent US11575141B2 (Robert Bosch GmbH, priority 2020, dated 2023).
Where two headings read alike, the source gives them in different places.

pKa values (pKa source in footnotes) (fourth pKa value listed) | pKa values (pKa source in footnotes) (third pKa value listed) | Compound | pKa values (pKa source in footnotes) (first pKa value listed) | pKa values (pKa source in footnotes) (second pKa value listed)
 |  | NP(=O)(O)O [Example 10, Phosphoramidate] | ~3.4 | ~8.3
 |  | O=[PH](O)O [Example 14, Phosphonic acid] | 1.1-2.3 | 5.3-7.2
10.0 | 7.3 | O=P(O)(O)P(=O)(O)O [Example 2, Hypophosphoric acid] | 2.2 | 2.8
 |  | O=P(O)(O)OP(=O)(O)OP(=O)(O)O [Example 5, Triphosphoric acid] | 0.89 ^3 | 
